Patent US20180118756A1, “COMPOSITIONS AND METHODS OF MODULATING SHORT-CHAIN DEHYDROGENASE ACTIVITY” (CASE WESTERN RESERVE UNIVERSITY, priority 2015, published 2018)
≈ marks a conversion by molar mass, not a printed value. Like-named read-outs stand apart in the source and are kept apart here.

How the values were obtained:
[1] = aqueous solubility in pH 7 or pH 4 citrate buffer solution; type: physicochemical
recombinant 15-PGDH = target: T1, recombinant 15-PGDH (Homo sapiens, UniProt P15428); experiment: IC50 for inhibiting enzymatic activity of recombinant 15-PGDH in an in vitro assay; type: biochemical; conditions: recombinant human 15-PGDH at 5 nM, in vitro
T1 sequence (P15428 1-266): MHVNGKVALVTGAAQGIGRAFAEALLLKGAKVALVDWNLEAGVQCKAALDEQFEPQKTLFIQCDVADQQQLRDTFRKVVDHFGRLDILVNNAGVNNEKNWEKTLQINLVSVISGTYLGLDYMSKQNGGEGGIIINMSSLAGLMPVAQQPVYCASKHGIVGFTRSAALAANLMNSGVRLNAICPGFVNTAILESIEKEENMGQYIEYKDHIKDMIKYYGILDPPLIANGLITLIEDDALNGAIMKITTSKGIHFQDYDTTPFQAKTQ

[2] = citrate buffer solution, pH 4, aqueous buffer, pH 4 citrate buffer solution, read-out: pH 4 solubility
[3] = citrate buffer solution, pH 7, aqueous buffer, pH 7 citrate buffer solution, read-out: pH 7 solubility
[4] = read-out: Enzyme Inhibitor IC50 (nM) at 5 nM 15-PGDH
[5] = Enzyme Inhibitor IC50 (nM) at 5 nM 15-PGDH

Compound	solubility [1, 2] [µg/mL]	solubility [1, 3] [µg/mL]	also measured
CCCC[S+]([O-])c1sc2nc(-c3nccs3)cc(-c3cnc(C)n3C)c2c1N (single isomer, unassigned; (+)) [(+)-(R)- SW 209415]			pH 7 solubility (μg/mL) ([1]; pH 7 citrate buffer solution): 2 μg/mL
CCCC[S+]([O-])c1sc2nc(-c3nccs3)ccc2c1N (stereo not drawn) [SW 206992]		4.76 (≈ 14.1 µM)	
CCCC[S+]([O-])c1sc2nc(-c3cccs3)cc(C)c2c1N (stereo not drawn) [SW 208488]		2.6 (≈ 7.42 µM)	
CCCC[S+]([O-])c1sc2nc(-c3ncco3)cc(-c3ccccc3)c2c1N (stereo not drawn) [SW 208496]		2.2 (≈ 5.53 µM)	
CC(C)[S+]([O-])c1sc2nc(-c3ncco3)cc(-c3ccccc3)c2c1N (stereo not drawn) [SW 208660]		11.6 (≈ 30.2 µM)	IC50 (recombinant 15-PGDH; [4]): 2.86 nM
Cc1cc(-c2nccs2)nc2sc([S+]([O-])C(C)C)c(N)c12 (stereo not drawn) [SW 208664]		9.7 (≈ 28.7 µM)	IC50 (recombinant 15-PGDH; [4]): 7.62 nM
CCCC[S+]([O-])c1sc2nc(-c3nccs3)cc(-c3cccnc3)c2c1N (stereo not drawn) [SW 208777]	3.8 (≈ 9.17 µM)	3.4 (≈ 8.2 µM)	
CC(C)[S+]([O-])c1sc2nc(-c3nccs3)cc(-c3cccnc3)c2c1N (stereo not drawn) [SW 208778]	26 (≈ 64.9 µM)	9.9 (≈ 24.7 µM)	
CC(C)[S+]([O-])c1sc2nc(-c3nccs3)cc(-c3ccccc3)c2c1N (stereo not drawn) [SW 208780]		0.65 (≈ 1.63 µM)	IC50 (recombinant 15-PGDH; [4]): 5.55 nM
CCCC[S+]([O-])c1sc2nc(-c3nccs3)cc(-c3nccn3C)c2c1N (stereo not drawn) [SW 209125]	31.6 (≈ 75.7 µM)		
CC(C)[S+]([O-])c1sc2nc(-c3nccs3)cc(-c3nccn3C)c2c1N (stereo not drawn) [SW 209279]	73 (≈ 181 µM)	37.7 (≈ 93.4 µM)	
CCC[S+]([O-])c1sc2nc(-c3nccs3)cc(-c3nccn3C)c2c1N (stereo not drawn) [SW 209280]	88 (≈ 218 µM)	17 (≈ 42.1 µM)	
CCCC[S+]([O-])c1sc2nc(-c3nccs3)cc(-c3ccc(COC(=O)NCCCl)cc3)c2c1N (stereo not drawn) [SW 213064, 4-(3-amino-2-(butylsulfinyl)-6-(thiazol-2-yl)thieno[2,3-b]pyridin-4-yl)benzyl (2-chloroethyl)carbamate]			solubility ([1]; aqueous buffer, pH 7 citrate buffer solution, read-out: pH 7 solubility): 8.27 µg/mL (≈ 15.1 µM); IC50 (recombinant 15-PGDH; [5]): 5.9 nM

Further lines, with some results ahead:

solubility [1, 2] [µg/mL]	solubility [1, 3] [µg/mL]	Compound	also measured
164 (≈ 358 µM)	4 (≈ 8.74 µM)	CCCC[S+]([O-])c1sc2nc(-c3nccs3)cc(-c3cnc(C4CC4)n3C)c2c1N (single isomer, unassigned) [SW 212345]	
241 (≈ 558 µM)	54.3 (≈ 126 µM)	CCCC[S+]([O-])c1sc2nc(-c3nccs3)cc(-c3cnc(C)n3C)c2c1N (stereo not drawn) [SW 209415, 2-(butylsulfinyl)-4-(1,2-dimethyl-1H-imidazol-5-yl)-6-(thiazol-2-yl)thieno[2,3-b]pyridin-3-amine]	
	5.9 (≈ 13.3 µM)	CCCC[S+]([O-])c1sc2nc(-c3nccs3)cc(-c3cccc(CO)c3)c2c1N (stereo not drawn) [SW 209418]	
1180 (≈ 2490 µM)	115 (≈ 243 µM)	CCCC[S+]([O-])c1sc2nc(-c3nccs3)cc(-c3ccc(OCCO)cc3)c2c1N (stereo not drawn) [SW 211688]	
	3.8 (≈ 8.99 µM)	COCC[S+]([O-])c1sc2nc(-c3nccs3)cc(-c3nccs3)c2c1N (stereo not drawn) [SW 213156]	IC50 (recombinant 15-PGDH; [5]): 5.7 nM
	7.4 (≈ 16.2 µM)	CCCC[S+]([O-])c1sc2nc(-c3nccs3)cc(-c3ccc(C(C)O)cc3)c2c1N (stereo not drawn) [SW 217778, 1-(4-(3-amino-2-(butylsulfinyl)-6-(thiazol-2-yl)thieno[2,3-b]pyridin-4-yl)phenyl)ethan-1-ol]	IC50 (recombinant 15-PGDH; [5]): 2.2 nM
597 (≈ 1340 µM)	30.5 (≈ 68.4 µM)	CCCC[S+]([O-])c1sc2nc(-c3nc(C)cs3)cc(-c3cnc(C)n3C)c2c1N (stereo not drawn) [SW 217779, 2-(butylsulfinyl)-4-(1,2-dimethyl-1H-imidazol-5-yl)-6-(4-methylthiazol-2-yl)thieno[2,3-b]pyridin-3-amine]	
71.8 (≈ 172 µM)	14 (≈ 33.5 µM)	CCCC[S+]([O-])c1sc2nc(-c3nccs3)cc(-c3cncn3C)c2c1N (stereo not drawn) [SW 217781, 2-(butylsulfinyl)-4-(1-methyl-1H-imidazol-5-yl)-6-(thiazol-2-yl)thieno[2,3-b]pyridin-3-amine]	IC50 (recombinant 15-PGDH; [5]): 1.9 nM
	747 (≈ 1300 µM)	CCCC[S+]([O-])c1sc2nc(-c3nccs3)cc(-c3ccc(OCCOC(=O)CCC(=O)O)cc3)c2c1N (stereo not drawn) [SW 217999, 4-(2-(4-(3-amino-2-(butylsulfinyl)-6-(thiazol-2-yl)thieno[2,3-b]pyridin-4-yl)phenoxy)ethoxy)-4-oxobutanoic acid]	IC50 (recombinant 15-PGDH; [5]): 6.2 nM
